# What was measured:
# [1] = target: indoleamine 2, 3-dioxygenase (IDO1) (Homo sapiens, UniProt P14902); assay: IDO1 PBMC RapidFire MS assay (kynurenine detection by mass spectrometry); format: cell-based; set-up: to induce the expression of indoleamine 2, 3-dioxygenase (IDO1); host or cells: human PBMC stimulated with IFN-gamma and LPS; conditions: human PBMC stimulated with IFN-γ and LPS, 2 days, pIC50, read-out: PBMC PXC50 (converted)
# Outline: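 PBMCs (50,000 cells/well) stimulated with IFN-γ 100 ng/ml plus LPS 50 ng/ml, treated with 11-point 3-fold compound series for 2 days at 37° C. Supernatant kynurenine measured by RapidFire MS, normalised to internal standard; parallel cytotoxicity by CellTiter-Glo luminescence; curves fitted for XC50.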
# [2] = test system: human peripheral blood mononuclear cells (PBMC); assay: PBMC cytotoxicity assay (CellTiter-Glo); format: cell-based; conditions: 2 days, pCC50
# Outline: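 Human PBMC (50,000 cells/well) stimulated with IFN-γ 100 ng/ml and LPS 50 ng/ml were exposed to 11-point 3-fold compound dilutions for 2 days at 37 °C, 5% CO2. Viability read by CellTiter-Glo ATP luminescence and normalized to no-cell and stimulated-DMSO controls. XC50 derived by four-parameter fit.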
# Sequence of indoleamine 2, 3-dioxygenase (IDO1) (P14902 whole entry): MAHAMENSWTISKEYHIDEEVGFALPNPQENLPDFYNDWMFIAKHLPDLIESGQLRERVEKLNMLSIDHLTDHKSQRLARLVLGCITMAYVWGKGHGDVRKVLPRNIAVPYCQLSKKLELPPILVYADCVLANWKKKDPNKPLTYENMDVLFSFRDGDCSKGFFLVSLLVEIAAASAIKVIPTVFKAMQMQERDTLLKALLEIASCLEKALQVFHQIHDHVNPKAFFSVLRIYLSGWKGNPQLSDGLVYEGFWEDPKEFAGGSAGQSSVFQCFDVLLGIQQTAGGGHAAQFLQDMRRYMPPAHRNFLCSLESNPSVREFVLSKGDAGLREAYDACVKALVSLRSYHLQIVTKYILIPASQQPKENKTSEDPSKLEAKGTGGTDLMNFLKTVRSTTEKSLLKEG
IC50 [1] [nM],SMILES,PBMC TOX PXC50 [2]
3.16,"CC(C)CN(c1ccc([C@H](C)CC(=O)O)cc1Nc1nc(C(C)C)ns1)C1CCOCC1 [Example 26, (R)-3-(4-(isobutyl(tetrahydro-2H-pyran-4-yl)amino)-3-((3-isopropyl-1,2,4-thiadiazol-5-yl)amino)phenyl)butanoic Acid]",<5
10,"CO[C@H](C)CN(CC(C)C)c1ccc([C@H](C)CC(=O)O)cc1Nc1nc(C(F)(F)F)ns1 [Example 96, (R)-3-(4-(isobutyl((R)-2-methoxypropyl)amino)-3-((3-(trifluoromethyl)-1,2,4-thiadiazol-5-yl)amino)phenyl)butanoic Acid]",<5
1.58,"CO[C@H]1CC[C@@H](N(CC(C)C)c2ccc([C@H](C)CC(=O)O)cc2Nc2ccc(C#N)cn2)CC1 [Example 53, (R)-3-(3-((5-cyanopyridin-2-yl)amino)-4-(isobutyl((1s,4S)-4-methoxycyclohexyl)amino)phenyl)butanoic Acid]",<5
2510,"CC(C)CN(c1ccc(C(C)Nc2c(O)c(=O)c2=O)cc1Nc1nc(C(F)(F)F)ns1)C1CCOCC1 (stereo not drawn) [example 256, 3-hydroxy-4-[(1-{4-[(2-methylpropyl)(oxan-4-yl)amino]-3-{[3-(trifluoromethyl)-1,2,4-thiadiazol-5-yl]amino}phenyl}ethyl)amino]cyclobut-3-ene-1,2-dione]",<5
> 10000,"CC(C)CN(c1ccc([C@H](C)CC(=O)O)cc1N(c1cnc(C(=O)O)nc1)c1cnc(C(=O)O)nc1)C1CCOCC1 [example 265, 5-({5-[(2R)-1-carboxypropan-2-yl]-2-[(2-methylpropyl)(oxan-4-yl)amino]phenyl}(2-carboxypyrimidin-5-yl)amino)pyrimidine-2-carboxylic acid]",<5
1.58,"CC(C)CN(c1ccc(C(C)CC(=O)O)cc1Nc1nnc(C(N)=O)s1)C1CCCCC1 (stereo not drawn) [Example 80, 3-(3-((5-carbamoyl-1,3,4-thiadiazol-2-yl)amino)-4-(cyclohexyl(isobutyl)amino)phenyl)butanoic]",<5
3980,"CC(C)CN(CC(C)C)c1ccc(C(C)CC(=O)O)cc1Nc1nnnn1C (stereo not drawn) [example 252, 3-{4-[bis(2-methylpropyl)amino]-3-[(1-methyl-1H-1,2,3,4-tetrazol-5-yl)amino]phenyl}butanoic acid]",<5
6.31,"COC(=O)c1c[nH]c(Nc2cc([C@H](C)CC(=O)O)ccc2N(CC(C)C)C2CCOCC2)n1 [Example 29, (R)-3-(4-(isobutyl(tetrahydro-2H-pyran-4-yl)amino)-3-((4-(methoxycarbonyl)-1H-imidazol-2-yl)amino)phenyl)butanoic acid]",<5
7.94,"CC(C)CN(c1ccc([C@H](C)CC(=O)O)cc1Nc1ccc(Cl)c(C#N)n1)C1CCOCC1 [Example 30, (R)-3-(3-((5-chloro-6-cyanopyridin-2-yl)amino)-4-(isobutyl(tetrahydro-2H-pyran-4-yl)amino)phenyl)butanoic Acid]",<5
3.98,"CC(C)CN(CC(C)C)c1ccc([C@H](C)CC(=O)O)cc1Nc1n[nH]c(C(F)(F)F)n1 [Example 86, (R)-3-(4-(diisobutylamino)-3-((5-(trifluoromethyI)-1H-1,2,4-triazol-3-yl)amino)phenyl)butanoic Acid]",<5
15.8,"CC(C)CN(c1ccc([C@H](C)CC(=O)O)cc1Nc1nc(C#N)c[nH]1)C1CCOCC1 [example 228, (3R)-3-{3-[(4 cyano-1H-imidazol-2-yl)amino]-4-[(2-methylpropyl)(oxan-4-yl)amino]phenyl}butanoic acid]",<5
7.94,"CC(C)CN(c1ccc([C@H](C)CC(=O)O)cc1Nc1n[nH]c(C#N)n1)C1CCCCC1 [Example 83, (R)-3-(3-((5-cyano-1H-1,2,4-triazol-3-yl)amino)-4-(cyclohexyl(isobutyl)amino)phenyl)butanoic Acid]",<5
39.8,"CO[C@H]1CC[C@H](N(CC(C)C)c2ccc([C@H](C)CC(=O)O)cc2Nc2n[nH]c(C3CC3)n2)CC1 (racemic) [example 221, (3RS)-3-{3-[(5-cyclopropyl-1H-1,2,4-triazol-3-yl)amino]-4-[(2-methylpropyl)[(1rs&,4rs&)-4-methoxycyclohexyl]ami-no]phenyl}butanoic acid]",<5
39.8,"Cc1nc(Nc2cc([C@H](C)CC(=O)O)ccc2N(CC(C)C)C2CCOCC2)ccc1Cl [example 260, (3R)-3-{3-[(5-chloro-6-methylpyridin-2-yl)amino]-4-[(2-methylpropyl)(oxan-4-yl)amino]phenyl}butanoic acid]",<5

# Continued, molecule first:
SMILES,IC50 [1] [nM],PBMC TOX PXC50 [2]
"CC(C)CN(c1ccc([C@H](C)CC(=O)O)cc1Nc1nc(C(F)(F)F)ns1)C1CCN(C(=O)OC(C)(C)C)CC1 [Example 69, (R)-3-(4-((1-(tert-butoxycarbonyl)piperidin-4-yl) (isobutyl)amino)-3-((3-(trifluoromethyl)-1,2,4-thiadiazol-5-yl)amino)phenyl)butanoic Acid]",2.51,<5
"CC(C)CN(c1ccc([C@H](C)CC(=O)O)cc1Nc1cnc(C(N)=O)cn1)C1CCOCC1 [example 264, (3R)-3-{3-[(5-carbamoylpyrazin-2-yl)amino]-4-[(2-methylpropyl)(oxan-4-yl)amino]phenyl}butanoic acid]",79.4,<5
"CC(C)CN(c1ccc([C@H](C)CC(=O)O)cc1Nc1nnc(C(N)=O)s1)C1CCOCC1 [example 261, (3R)-3-{3-[(5-carbamoyl-1,3,4-thiadiazol-2-yl)amino]-4-[(2-methylpropyl)(oxan-4-yl)amino]phenyl}butanoic acid]",31.6,<5
"CC(C)CN(CCCCCNC(=O)c1ccc(C2(C(F)(F)F)N=N2)cc1)c1ccc([C@H](C)CC(=O)O)cc1Nc1nc(C(F)(F)F)ns1 [example 255, (3R)-3-{4-[(2-methylpropyl)[5-({4-[3-(trifluoromethyl)-3H-diazirin-3-yl]phenyl}formamido)pentyl]amino]-3-{[3-(trifluoromethyl)-1,2,4-thiadiazol-5-yl]amino}phenyl}butanoic acid]",20,<4.3
"CNC(=O)c1nc(Nc2cc([C@H](C)CC(=O)O)ccc2N(CC(C)C)[C@H]2CC[C@@H](OC)CC2)n[nH]1 (racemic) [example 246, (3RS)-3-(3-{[5-(methylcarbamoyl)-1H-1,2,4-triazol-3-yl]amino}-4-[(2-methylpropyl)[(1rs&,4rs&)-4-methoxycyclohexyl]ami-no]phenyl)butanoic acid]",25.1,<5
"CC(C)CN(c1ccc(C(C)CC(=O)O)cc1Nc1nncs1)C1CCCCC1 (stereo not drawn) [example 235, 3-{4-[cyclohexyl(2-methylpropyl)amino]-3-[(1,3,4-thiadiazol-2-yl)amino]phenyl}butanoic acid]",20,<5
"CC(C)CN(c1ccc(C(C)N)cc1Nc1nc(C(F)(F)F)ns1)C1CCOCC1 (stereo not drawn) [example 234, 4-(1-aminoethyl)-N1-(2-methylpropyl)-N1-(oxan-4-yl)-N2-[3-(trifluoromethyl)-1,2,4-thiadiazol-5-yl]benzene-1,2-diamine]",501,<5
"CC(C)CN(c1ccc([C@H](C)CC(=O)O)cc1Nc1nc(C(F)(F)F)ns1)C1CCN(c2nc(C(F)(F)F)ns2)CC1 [Example 95, (R)-3-(4-(isobutyl(1-(3-(trifluoromethyl)-1,2,4-thiadiazol-5-yl)piperidin-4-yl)amino)-3-((3-(trifluoromethyl)-1,2,4-thiadiazol-5-yl)amino)phenyl)butanoic Acid]",1.58,<5
CO[C@H]1CC[C@H](N(CC(C)C)c2ccc([C@H](C)CC(=O)O)cc2Nc2n[nH]c(C(F)(F)F)n2)CC1 [Example 52],10,<5
"CC(C)CN(c1ccc([C@H](C)CC(=O)O)cc1Nc1nc(C(F)(F)F)ns1)C1CCN(C(=O)C2CC2)CC1 [Example 64, (R)-3-(4-((1-(cyclopropanecarbonyl)piperidin-4-yl) (isobutyl)amino)-3-((3-(trifluoromethyl)-1,2,4-thiadiazol-5-yl)amino)phenyl)butanoic Acid]",1,<5
"CC(C)CN(c1ccc([C@H](C)CC(=O)O)cc1Nc1n[nH]c(C(F)(F)F)n1)C1CCOCC1 [Example 32, (R)-3-(4-(Isobutyl(tetrahydro-2H-pyran-4-yl)amino)-3-((5-(trifluoromethyl)-1H-1,2,4-triazol-3-yl)amino)phenyl)butanoic Acid]",10,<5
"CONC(=O)C[C@@H](C)c1ccc(N(CC(C)C)C2CCOCC2)c(Nc2nc(C(F)(F)F)ns2)c1 [Example 106, (R)-3-(4-(Isobutyl(tetrahydro-2H-pyran-4-yl)amino)-3-((3-(trifluoromethyl)-1,2,4-thiadiazol-5-yl)amino)phenyl)-N-methoxybutanamide]",6.31,<5
CNC(=O)c1nnc(Nc2cc(C(C)CC(=O)O)ccc2N(CC(C)C)C2CCCCC2)s1 (stereo not drawn) [Example 79],5.01,<5
